From PMC12586182 (Frontiers in Oncology, 2025)

Assays:
Assay in all cases: Cell viability assay (ATPlite)
Format in all cases: cell-based
SUP-T1 = settings: Homo sapiens; SUP-T1 cell line, 72 hours incubation
Method: (§1) Intracellular ATP content was used as an indirect readout of cell number using the ATPlite 1Step bioluminescence assay (Revvity, Groningen, the Netherlands). Cells were seeded in 384-well plates at an optimized density to ensure unrestricted growth and maximal signal at the end of the experiment. After 24 hours of incubation, the starting cell number was determined by adding ATPlite to each well of a control plate and recording luminescence on an Envision multimode reader (Revvity, Waltham, MA, USA) ([4]). Compounds were diluted in DMSO in √10-fold steps from 10 mmol/L stocks to obtain 9-point dilution series. After further 31.6-fold dilution in 20 mmol/L HEPES (pH 7.4), the dilution series were added in duplicate to the cells in the 384-well plates to determine the effect of the compounds on cell viability. Vehicle-treated controls were included to determine maximal cell proliferation. The final DMSO concentration was 0.4% (v/v) in all wells. After incubation for an additional 72 hours, the ATP content was measured in each well using ATPlite. The luminescent signal in inhibitor-treated wells was normalized to vehicle-treated control wells to determine the percentage viability at each concentration. Cell doublings were determined by relating the cell number of vehicle-treated controls to the starting cell number for each cell line. The viability assay of a cell line was repeated when the cell doubling deviated > 2-fold from the historic doubling as determined by multiple independent experiments. The quality of the complete assay was determined by a parallel test with doxorubicin on two cell lines. IC50 values were calculated by fitting a four-parameter logistic model to the percentage viability values using IDBS XLfit5 (IDBS, Guildford, United Kingdom). All curves were visually inspected and submitted to an F-test as implemented in IDBS XLfit5. Curves with an F-value above 1.5 were invalidated and IC50 values were maximized at the highest concentration.

HEC-251 = settings: Homo sapiens; HEC-251 cell line, 72 hours incubation
Method: as §1

A-388 = settings: Homo sapiens; A-388 cell line, 72 hours incubation
Method: as §1

RD = settings: Homo sapiens; RD cell line, 72 hours incubation
Method: as §1

A-549 = settings: Homo sapiens, A549; A-549 cell line, 72 hours incubation
Method: as §1

H9 = settings: Homo sapiens; H9 cell line, 72 hours incubation
Method: as §1

HuTu 80 = settings: Homo sapiens, HuTu80; HuTu 80 cell line, 72 hours incubation
Method: as §1

MV4-11 = settings: Homo sapiens; MV4-11 cell line, 72 hours incubation
Method: as §1

MM1.S = settings: Homo sapiens; MM1.S cell line, 72 hours incubation
Method: as §1

BT-20 = settings: Homo sapiens; BT-20 cell line, 72 hours incubation
Method: as §1

NCI-H460 = settings: Homo sapiens; NCI-H460 cell line, 72 hours incubation
Method: as §1

NCI-H1650 = settings: Homo sapiens; NCI-H1650 cell line, 72 hours incubation
Method: as §1

A-172 = settings: Homo sapiens; A-172 cell line, 72 hours incubation
Method: as §1

DoHH2 = settings: Homo sapiens, DOHH-2; DoHH2 cell line, 72 hours incubation
Method: as §1

SW620 = settings: Homo sapiens, SW-620; SW620 cell line, 72 hours incubation
Method: as §1

EoL-1 = settings: Homo sapiens, EOL1; EoL-1 cell line, 72 hours incubation
Method: as §1

769-P = settings: Homo sapiens; 769-P cell line, 72 hours incubation
Method: as §1

NCC-IT = settings: Homo sapiens, NCCIT; NCC-IT cell line, 72 hours incubation
Method: as §1

COLO 205 = settings: Homo sapiens; COLO 205 cell line, 72 hours incubation
Method: as §1

5637 = settings: Homo sapiens; 5637 cell line, 72 hours incubation
Method: as §1

Hs 766T = settings: Homo sapiens, Hs766T; Hs 766T cell line, 72 hours incubation
Method: as §1

KMS-11 = settings: Homo sapiens; KMS-11 cell line, 72 hours incubation
Method: as §1

U2OS = settings: Homo sapiens; U2OS cell line, 72 hours incubation
Method: as §1

11-18 = settings: Homo sapiens; 11-18 cell line, 72 hours incubation
Method: as §1

MOLT-4 = settings: Homo sapiens; MOLT-4 cell line, 72 hours incubation
Method: as §1

MG-63 = settings: Homo sapiens; MG-63 cell line, 72 hours incubation
Method: as §1

HEC-1 = settings: Homo sapiens; HEC-1 cell line, 72 hours incubation
Method: as §1

HCT 15 = settings: Homo sapiens; HCT 15 cell line, 72 hours incubation
Method: as §1

SW1573 = settings: Homo sapiens; SW1573 cell line, 72 hours incubation
Method: as §1

U-118MG = settings: Homo sapiens; U-118MG cell line, 72 hours incubation
Method: as §1

BT-549 = settings: Homo sapiens; BT-549 cell line, 72 hours incubation
Method: as §1

O=C(c1ccc(Oc2ccccc2)cc1Cl)c1c[nH]c2ncnc(N[C@@H]3CC[C@@H](CO)OC3)c12 [nemtabrutinib]
IC50 (SUP-T1): 12.1 µM
IC50 (HEC-251): 0.178 µM
IC50 (A-388): 5.33 µM
IC50 (RD): 3.44 µM
IC50 (A-549): 7.26 µM
IC50 (H9): 1.32 µM
IC50 (HuTu 80): 1.68 µM
IC50 (MV4-11): 1.35 µM
IC50 (MM1.S): 5.48 µM
IC50 (BT-20): 14.5 µM
IC50 (NCI-H460): 5.73 µM
IC50 (NCI-H1650): 9.8 µM
IC50 (A-172): 10.6 µM
IC50 (DoHH2): 0.486 µM
IC50 (SW620): 2.45 µM
IC50 (EoL-1): 0.059 µM
IC50 (769-P): 4.01 µM
IC50 (NCC-IT): 4.62 µM
IC50 (COLO 205): 0.654 µM
IC50 5637: 3.46 µM
IC50 (Hs 766T): 1.82 µM
IC50 (KMS-11): 4.65 µM
IC50 (U2OS): 2.67 µM
IC50 (11-18): 2.62 µM
IC50 (MOLT-4): 6.87 µM
IC50 (MG-63): 5.82 µM
IC50 (HEC-1): 4.58 µM
IC50 (HCT 15): 5.78 µM
IC50 (SW1573): 6.3 µM
IC50 (U-118MG): 12.9 µM
IC50 (BT-549): 8.07 µM
